We go through 36 compounds from ChEMBL document CHEMBL1201862, “PubChem BioAssay data set” (2004).

Where “and” joins values, the source holds several entries; their conditions need not be identical. Identical values can stand only once.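 Dose response: 5 concentrations. Exposure: 48 h. Format: 96-well plates. Endpoint: linear interpolation; highest concentration if not reached. GI50 marks 50% less growth.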 Calls of active or inactive are those of the source. Rule as the data show it: active = GI50 up to about 1.1 µM and inactive = higher.

In the experiment the test system is Hs-578T. Description: inhibition of tumour cell growth, NCI panel, 48 h.

In the case of `COc1cccc2cc(C(C)=O)c(=O)oc12`, the GI50 is > 100 µM (inactive).
Then `O=C(O)C12C3CCC(O3)C1(C(=O)O)C1CCC2O1` (stereo unspecified), with > 100 µM (inactive) and 98.2 µM (inactive).
For the compound `Cc1ccc(S(=O)(=O)N2CCSCCSCCSCCSCC2)cc1`, the GI50 is > 23.3 µM (inactive).
The figure for `Cc1ccc2c(c1)S(=O)(=O)c1ccc3ccccc3c1N2` is > 100 µM (inactive); for `COc1cc2c(c(O)c1OC)C(=O)[C@@H]1CCC(=O)N1C2` it is > 100 µM (inactive); for `O=C1COc2ccc([N+](=O)[O-])cc2C(=O)C1` it is > 10 µM (inactive).
Then `COc1ccc(OC)c(C2Cc3cnc4nc(N)nc(N)c4c3C2)c1` (stereo unspecified), with 30.6 µM (inactive); and `COC1/C=C/C(C)C(OC)CC(O)/C=C/C(C)C(C(C)C(OC)C(C)CCC(=O)C(C)C(C/C=C/N(C)C=O)OC)OC(=O)/C=C/C=C(\C)CC(OC)CC2=CC(=O)O[C@@H](C(C)C(OC)C1)[C@H]2O` (stereo partly specified), with 0.0809 µM (active); and `CCOC(=O)/C(C(N)=O)=C(/O)c1cnccn1`, with > 100 µM (inactive).
For `O=C1CN(c2ccccc2)C(=O)CN1CCN1CC(=O)N(c2ccccc2)CC1=O`, the GI50 is > 100 µM (inactive).
For `CCOc1ccc(-n2c(=O)n3c(Nc4ccc(Cl)cc4)nc4c(c(=O)n(C)c(=O)n4C)n3c2=O)cc1`, the GI50 is 33 µM (inactive).
As to `CCOc1ccccc1/N=N/C1C(=O)N(C(=O)CC(=O)Nc2ccccc2OC)N=C1C` (stereo unspecified), the GI50 was 1.78 µM (inactive).
The figure for `[O-][n+]1nc(N2CCOCC2)nc2ccccc21` is > 100 µM (inactive).
On to `COc1ccc(NC(=O)CSc2nc(C)nc3c2sc(=S)n3-c2ccccc2)cc1`, for which the GI50 is 3.75 µM (inactive).
As for `COc1ccc2c(c1)[C@@H]1c3cc(OC)c(OC)cc3CCN1CCC2`, the GI50 was > 100 µM (inactive).
Turning to `O=c1cc(-c2ccccc2)oc2cc(Oc3nnnn3-c3ccccc3)ccc12`, the GI50 was 25.4 µM (inactive).
The figure for `COC(=O)/C=C\C(C#N)(C#N)/N=C/c1ccc(OC)cc1` is 10 µM (inactive).
Regarding `COCOC1C=CCCCC2=CC(C)=C(CC1)O2` (stereo unspecified), the GI50 is > 100 µM (inactive).
Regarding `COc1cc(O)c2c(c1)OCC1(Cc3cc(OC)c(OC)cc31)C2=O` (stereo unspecified), the GI50 is 42.5 µM (inactive).
On to `O=C(c1ccccc1)N1C(=O)N(c2ccccc2)C(=N/c2ccccc2)/C1=N\c1ccccc1`, for which the GI50 was 20.3 µM (inactive).
With `CS(=O)(=O)Nc1ccc(NCc2c[nH]c3ccc4ncccc4c23)cc1`, the GI50 was 22.3 µM (inactive).
Regarding `O=c1[nH]nc(Nc2ccc(Cl)cc2)c2nnn(C3CCCCC3)c12`, the GI50 was 34.5 µM (inactive).
`CC1(C)CO[P@@](=S)(c2ccccn2)O[C@@H]1c1ccccc1`: the GI50 is > 100 µM (inactive).
`O=C(CC(=O)N(C(=O)c1ccccc1)c1ccc(Cl)cc1)N/N=C\c1ccccc1O`: the GI50 is 26 µM (inactive).
As for `COc1cc(CCCOC(=O)/C=C/c2ccc(O)c(O)c2)cc(O)c1O`, the GI50 was 35.6 µM (inactive).
For `CN(CCCCCl)P(=O)(OCc1ccc([N+](=O)[O-])o1)OCC1OC(n2ccc(N)nc2=O)C(O)C1O` (stereo unspecified), the GI50 was 1.26 µM (inactive).
Regarding `Fc1cccc(Cl)c1C1SCc2nc3cc4ccccc4cc3n21` (stereo unspecified), the GI50 was 28.7 µM (inactive).
The figure for `CC(=O)c1ccc(/N=N/c2ccc3nonc3c2N)cc1` is > 100 µM (inactive).
Take `COc1cccc(C2c3cc4c(cc3OC(N3CCCCC3)C2C)OCO4)c1OC` (stereo unspecified): the GI50 is 4.31 µM (inactive).
Consider `COc1ccc(CCN2CCN(CCc3ccc(OC)cc3)CC2)cc1`, for which the GI50 is > 100 µM (inactive).
Turning to `NC(=O)CC(N)C(N)=O` (stereo unspecified), the GI50 was > 100 µM (inactive).
Then `OCCN1CN(c2nc(N3CN(CCO)C3)nc(N3CN(CCO)C3)n2)C1`, with 35.2 µM (inactive); and `COc1cc2c(cc1OC)C(CCN)=NCC2`, with 27.7 µM (inactive); and `N#C[BH2-][n+]1ccc(C(=O)NNCc2ccc(F)cc2)cc1`, with > 100 µM (inactive).
As to `C=C1C(=O)C23CC1CCC2C12CO[C@H](O)[C@H]1C(C)(C)[C@H](OC(C)=O)C[C@H]2OC3=O` (stereo partly specified), the GI50 is 34.4 µM (inactive).
Regarding `COc1cccc2cc(C(=O)O)c(=O)oc12`, the GI50 was > 100 µM (inactive).
